Results as given in patent US20230257398A1, “PYRIMIDINE-BASED TRICYCLIC COMPOUND AND USE THEREOF” (Chia Tai Tianqing Pharmaceutical Group Co., Ltd., priority 2020, published 2023).

Biological target: T1, sGC (Homo sapiens, UniProt Q02108+Q02153)
T1 construct: Preparation of LNCap Cells; endogenous in cells; host or cells: LNCaP cells (14th generation), no transfection described
T1 sequence (Q02153 1-619): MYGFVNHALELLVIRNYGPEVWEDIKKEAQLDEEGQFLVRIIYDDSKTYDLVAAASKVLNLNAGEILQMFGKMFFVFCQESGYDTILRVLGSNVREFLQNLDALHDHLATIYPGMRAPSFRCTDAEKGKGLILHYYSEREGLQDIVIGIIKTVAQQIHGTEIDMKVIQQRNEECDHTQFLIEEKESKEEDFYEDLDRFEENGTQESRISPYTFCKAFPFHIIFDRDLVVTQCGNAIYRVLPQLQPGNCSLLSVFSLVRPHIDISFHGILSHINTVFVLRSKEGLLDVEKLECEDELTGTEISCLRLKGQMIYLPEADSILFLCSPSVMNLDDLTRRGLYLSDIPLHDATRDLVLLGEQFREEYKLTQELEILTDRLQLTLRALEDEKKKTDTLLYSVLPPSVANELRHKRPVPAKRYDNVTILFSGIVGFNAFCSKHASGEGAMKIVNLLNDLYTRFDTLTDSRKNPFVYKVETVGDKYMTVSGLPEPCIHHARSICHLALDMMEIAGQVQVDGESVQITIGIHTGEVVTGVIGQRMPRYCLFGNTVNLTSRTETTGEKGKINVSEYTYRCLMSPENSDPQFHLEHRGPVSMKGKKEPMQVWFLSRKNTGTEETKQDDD
T1 sequence (Q02108 1-690): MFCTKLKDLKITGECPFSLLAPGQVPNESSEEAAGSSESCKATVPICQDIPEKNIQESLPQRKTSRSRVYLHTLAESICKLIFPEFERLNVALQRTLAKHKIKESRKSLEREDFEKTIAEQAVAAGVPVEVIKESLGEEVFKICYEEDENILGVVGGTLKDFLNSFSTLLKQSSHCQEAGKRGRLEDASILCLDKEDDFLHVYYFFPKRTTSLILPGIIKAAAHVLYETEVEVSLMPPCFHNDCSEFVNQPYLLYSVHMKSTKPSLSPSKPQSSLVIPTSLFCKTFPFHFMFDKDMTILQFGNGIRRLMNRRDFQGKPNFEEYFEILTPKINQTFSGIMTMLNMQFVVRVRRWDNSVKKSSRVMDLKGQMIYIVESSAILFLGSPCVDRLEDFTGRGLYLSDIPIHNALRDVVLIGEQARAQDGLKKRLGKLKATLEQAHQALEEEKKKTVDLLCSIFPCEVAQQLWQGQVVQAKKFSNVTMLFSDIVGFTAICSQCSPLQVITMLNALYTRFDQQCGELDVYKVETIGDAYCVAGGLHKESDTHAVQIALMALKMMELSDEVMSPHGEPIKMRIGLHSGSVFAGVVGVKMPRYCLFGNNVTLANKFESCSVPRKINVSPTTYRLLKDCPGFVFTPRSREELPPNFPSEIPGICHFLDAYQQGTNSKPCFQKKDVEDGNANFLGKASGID
Experiment: lnCap cell-based cGMP expression assay (stimulating activity for sGC)
Conditions: with DETA-NO, 37° C. 30 min, HTRF cGMP
Procedure: I. lnCap Cell-Based cGMP Expression Assay
1) Preparation of Solutions
10% BSA (Bovine Serum Albumin)
10 g of BSA was dissolved in 100 mL of double distilled water (ddH2O) to give 10% BSA.
5 mM DETA (Diethylenetriamine)-NO
10 mg of DETA-NO was weighed out and dissolved in 12.2 mL of double distilled water (ddH2O) to give 5 mM DETA-NO, which was aliquoted and cryopreserved in a freezer at −20° C.
a) To 1 mL of a lysis buffer was added 50 μL of cGMP-D2 (D2-labeled cyclic guanosine monophosphate), and the mixture was well mixed.
b) To 1 mL of a lysis buffer was added 50 μL of anti-cGMP cryptate (Eu^3+ cryptate-labeled anti-cyclic guanosine monophosphate antibody), and the mixture was well mixed.
(1) The compounds were diluted to 5 mM with DMSO. 10 μL of each of the compounds was transferred to a shallow well plate for Echo.
(2) The compounds were gradiently diluted with Echo. Each of the compounds was diluted to obtain 10 concentration gradients, and 50 nL of each of the concentration gradients was added to a 384 microwell plate.
3) Preparation of LNCap Cells
(1) LNCap medium: RPMI1640+10% fetal bovine serum+1% […].
(2) Phosphate buffered saline, pancreatin and the medium used in the process of cell passaging were pre-heated in a water bath at 37° C.
(3) The cells (the 14th generation) were taken out of the 37° C., 5% CO2 incubator, and the old medium was pipetted off the culture flask.
(4) 5 mL of phosphate buffered saline was pipetted into the culture flask to rinse the cells, and then the liquid was discarded.
(5) 3 mL of pancreatin was pipetted into the culture flask. After the culture flask was shaken, the liquid was discarded, and the culture flask was placed in the incubator.
(6) After about 2 min the culture flask was taken out. […] The cell suspension was transferred to a 50 mL centrifuge tube.
(7) 0.7 mL of the cell suspension was pipetted into a counter cup and the cells were counted on a ViCell XR. The remaining cells were centrifuged at 1000 rpm for 5 min, and the supernatant was removed.
(8) The cells were washed by adding 10 mL of the washing buffer and centrifuged at 1000 rpm for 5 min, and the supernatant was removed.
(9) The assay buffer was added to adjust the cell concentration to 1.25×10^6/mL. The cells were added to the microwell plate at 8 μL/well.
4) Formulation and Addition of DETA-NO
(1) 10 μL of 5 mM DETA-NO was added to 1240 μL of the assay buffer and to 1657 μL of the assay buffer to give 40 μM DETA-NO and 30 μM DETA-NO, respectively.
(2) DETA-NO was transferred to the 384 microwell plate at 2 μL/well using Bravo.
(3) The mixtures were centrifuged at 1500 rpm for 5 min. The microwell plate was incubated at 37° C. for 30 min.
5) Preparation of cGMP Standard Curve
(1) 1 mM of the cGMP stock solution was diluted to 10 μM with the assay buffer. Then 4-fold gradient dilution was performed to obtain 11 concentration gradients.
(2) The cGMP dilutions were added to the microwell plate at 10 μL/well.
6) Addition of Detection Reagents and Plate Reading
(1) cGMP-D2 was transferred to the 384 microwell plate at 5 μL/well using Bravo. The mixtures were centrifuged at 1500 rpm for 1 min.
(2) The anti-cGMP cryptate was transferred to the 384 microwell plate at 5 μL/well using Bravo. The mixtures were centrifuged at 1500 rpm for 1 min.
(3) The plate was incubated at room temperature for 1 h.
(4) 665/615 was read using envision.
(1) cGMP standard curve: a standard curve was generated using Graphpad prism based on the cGMP concentrations and 665/615 ratios.
(2) Conversion of HTRF (homogeneous time-resolved fluorescence) ratios (665/615) to cGMP concentrations: in Graphpad prism, the HTRF ratios (665/615) were copied into the ratio column of the cGMP standard curve, and the “Log inhibitor vs response-variable slope” analysis was run with “interpolate” selected to convert the HTRF ratios (665/615) to cGMP concentrations. […]

| MEC: minimum effective concentration to stimulate cGMP production (three times greater than the basal value) in lnCap cells | Structure (SMILES) |
| --- | --- |
| 84.34 nM | CN1C(=O)C2(C)CC(=O)Nc3nc(-c4nn(Cc5ccccc5F)c5ncc(F)cc45)nc1c32 (stereo not shown) [Compound 030] |
| 3.12 nM | CC12CCC(=O)Nc3nc(-c4nn(Cc5c(F)cccc5F)c5ncc(F)cc45)nc(c31)NC2=O (stereo not shown) [Compound 013] |
| 88.37 nM | CC12CCC(=O)Nc3nc(-c4nn(Cc5ccccc5F)c5ncc(F)cc45)nc(c31)NC(=O)C2 (stereo not shown) [Compound 008] |
| 24.9 nM | CC12CCNc3nc(-c4nn(Cc5c(F)cccc5F)c5ncc(F)cc45)nc(c31)NC(=O)C2 (stereo not shown) [Compound 022] |
| 81.22 nM | O=c1[nH]c2nc(-c3nn(Cc4ccccc4F)c4ncc(F)cc34)nc3c2n1CCN3 [Compound 002] |
| 51.76 nM | CC12CC(=O)Nc3nc(-c4nn(Cc5c(F)cccc5F)c5ncc(F)cc45)nc(c31)NC(=O)C2 [Compound 010] |
| 28.15 nM | CC12OCCNc3nc(-c4nn(Cc5ccccc5F)c5ncc(F)cc45)nc(c31)NC2=O (stereo not shown) [Compound 039] |
| 126.5 nM | COC(=O)NC12CCOc3nc(-c4nn(Cc5ccccc5F)c5ncc(F)cc45)nc(c31)NC2=O (stereo not shown) [Compound 049] |
| 33.55 nM | CCOC(=O)C12CCOc3nc(-c4nn(Cc5ccccc5F)c5ncc(F)cc45)nc(c31)NC2=O (stereo not shown) [Compound 048] |
| 7.59 nM | CC12CC(=O)Nc3nc(-c4nn(Cc5ccccc5F)c5ncc(F)cc45)nc(c31)NC2=O (stereo not shown) [Compound 024] |
| 2.4 nM | CC12CCC(=O)Nc3nc(-c4nn(Cc5ccccc5F)c5ncc(F)cc45)nc(c31)NC2=O (stereo not shown) [Compound 019] |
| 4.66 nM | CC12CCNc3nc(-c4nn(Cc5c(F)cccc5F)c5ncc(F)cc45)nc(c31)NC2=O (stereo not shown) [Compound 015] |
| 17.51 nM | CC12CC(=O)Nc3nc(-c4nn(CCC(F)(F)C(F)(F)F)c5ncc(F)cc45)nc(c31)NC2=O (stereo not shown) [Compound 016] |
| 6.38 nM | CC12CC(=O)Nc3nc(-c4nn(Cc5ccccc5F)c5ncc(F)cc45)nc(c31)NC2=O (stereo not shown) [Compound 001] |
| 55.54 nM | CC12CC(=O)Nc3nc(-c4nn(Cc5ccccc5F)c5ncc(F)cc45)nc(c31)NC(=O)C2 [Compound 007] |
| 231.7 nM | CCNC(=O)OC12CCOc3nc(-c4nn(Cc5ccccc5F)c5ncc(F)cc45)nc(c31)NC2=O (stereo not shown) [Compound 050] |
| 19.78 nM | CC1(C)C(=O)Nc2nc(-c3nn(Cc4ccccc4F)c4ncc(F)cc34)nc3c2C1C(=O)N3 (stereo not shown) [Compound 031] |
| 402.7 nM | CC12CCC(=O)Nc3nc(-c4nn(CCC(F)(F)C(F)(F)F)c5ncc(F)cc45)nc(c31)NC(=O)C2 (stereo not shown) [Compound 014] |
| 37.34 nM | CN1C(=O)CC2(C)C(=O)Nc3nc(-c4nn(Cc5ccccc5F)c5ncc(F)cc45)nc1c32 (stereo not shown) [Compound 029] |
| 26.12 nM | CC12CCNc3nc(-c4nn(CCC(F)(F)C(F)(F)F)c5ncc(F)cc45)nc(c31)NC(=O)C2 (stereo not shown) [Compound 023] |
| 13.12 nM | CC12CCC(=O)Nc3nc(-c4nn(CCC(F)(F)C(F)(F)F)c5ncc(F)cc45)nc(c31)NC2=O (stereo not shown) [Compound 018] |
| 21.26 nM | CC12CNC(=O)c3nc(-c4nn(Cc5ccccc5F)c5ncc(F)cc45)nc(c31)NC2=O (stereo not shown) [Compound 028] |
| 3.46 nM | CC12CC(=O)Nc3nc(-c4nn(Cc5c(F)cccc5F)c5ncc(F)cc45)nc(c31)NC2=O (stereo not shown) [Compound 017] |
| 5.8 nM | CC12CCNc3nc(-c4nn(CCC(F)(F)C(F)(F)F)c5ncc(F)cc45)nc(c31)NC2=O (stereo not shown) [Compound 009] |
| 142.79 nM | O=C1Cn2c(=O)[nH]c3nc(-c4nn(Cc5ccccc5F)c5ncc(F)cc45)nc(c32)N1 [Compound 004] |
| 118.6 nM | CC12CC(=O)Nc3nc(-c4nn(CCC(F)(F)C(F)(F)F)c5ncc(F)cc45)nc(c31)NC(=O)C2 [Compound 012] |
| 7.97 nM | CC12CCNc3nc(-c4nn(Cc5ccccc5F)c5ncc(F)cc45)nc(c31)NC2=O (stereo not shown) [Compound 003] |
| 31.53 nM | CC12C(=O)Nc3nc(-c4nn(Cc5ccccc5F)c5ncc(F)cc45)nc(c31)NC(=O)C2(F)F (stereo not shown) [Compound 034] |
